Laboratory results published in ChEMBL document CHEMBL1145635, “Identification of long chain alkylidenemalonates as novel small molecule modulators of histone acetyltransferases” (2008).
Activity calls are given as the source filed them. No cut-off for these calls is given here.

What was measured:
U-937 [1] = assay: Inhibition of recombinant CBP in human U937 cells at 50 uM; type: cell-based; parameters: scale not given: the % may be the effect or the level left
U-937 [2] = assay: Inhibition of p300/CBP in human U937 cells at 50 uM; type: cell-based; parameters: scale not given: the % may be the effect or the level left
HEK-TE [3] = assay: Increase in histone H3 acetylation in human HEK-TE cells at 5 uM after 6 hrs by Western blot analysis; type: functional, cell-based
[4] = biological target: Histone acetyltransferase KAT2B (Homo sapiens) (UniProt Q92831); assay: Effect on PCAF in human U937 cells assessed as increase in acetylation activity at 50 uM; type: cell-based; conditions: U-937
Histone acetyltransferase KAT2B (Homo sapiens), sequence (Q92831 whole entry, looked up): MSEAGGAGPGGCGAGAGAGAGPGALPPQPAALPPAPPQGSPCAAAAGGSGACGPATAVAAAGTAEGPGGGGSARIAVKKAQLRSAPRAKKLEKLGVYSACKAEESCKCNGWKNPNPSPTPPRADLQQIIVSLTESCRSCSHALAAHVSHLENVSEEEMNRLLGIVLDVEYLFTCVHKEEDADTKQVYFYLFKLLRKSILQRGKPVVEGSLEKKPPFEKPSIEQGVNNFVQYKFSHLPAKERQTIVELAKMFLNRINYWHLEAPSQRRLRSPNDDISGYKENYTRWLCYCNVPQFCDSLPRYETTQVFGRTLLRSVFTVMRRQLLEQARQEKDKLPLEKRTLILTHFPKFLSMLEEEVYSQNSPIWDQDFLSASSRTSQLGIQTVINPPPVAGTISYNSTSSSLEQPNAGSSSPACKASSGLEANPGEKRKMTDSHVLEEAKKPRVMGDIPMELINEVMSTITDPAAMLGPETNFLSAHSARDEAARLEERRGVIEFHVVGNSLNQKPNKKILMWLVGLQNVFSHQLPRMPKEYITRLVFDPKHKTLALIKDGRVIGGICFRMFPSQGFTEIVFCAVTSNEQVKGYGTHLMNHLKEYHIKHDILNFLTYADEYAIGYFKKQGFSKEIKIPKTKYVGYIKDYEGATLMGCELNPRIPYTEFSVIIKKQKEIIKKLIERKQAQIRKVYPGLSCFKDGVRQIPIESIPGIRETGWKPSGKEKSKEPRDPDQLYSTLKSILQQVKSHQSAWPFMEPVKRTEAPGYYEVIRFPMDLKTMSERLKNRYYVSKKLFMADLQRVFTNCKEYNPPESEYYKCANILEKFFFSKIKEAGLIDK

U-937 [5] = assay: Increase in histone H3 acetylation in human U937 cells at 50 uM after 16 hrs by Western blot analysis; type: functional, cell-based
U-937 [6] = assay: Induction of apoptosis in human U937 cells at 50 uM after 42 hrs by flow cytometry; type: functional
U-937 [7] = assay: Effect on non histone alpha-tubulin in human U937 cells at 50 uM after 16 hrs by Western blot analysis; type: functional, cell-based
U-937 [8] = assay: Increase in histone H3 acetylation in human U937 cells at 50 uM after 20 hrs by Western blot analysis; type: functional, cell-based
U-937 [9] = assay: Cell cycle arrest in human U937 cells assessed as accumulation at S phase at 25 uM after 42 hrs by flow cytometry; type: functional, cell-based
U-937 [10] = assay: Induction of apoptosis in human U937 cells at 25 uM after 42 hrs by flow cytometry; type: functional
HEK-TE [11] = assay: Increase in histone H3 acetylation in human HEK-TE cells at 50 uM after 6 hrs by Western blot analysis; type: functional, cell-based
[12] = biological target: Histone acetyltransferase KAT2A (Homo sapiens) (UniProt Q92830); assay: Inhibition of GCN5 in human U937 cells at 50 uM; type: cell-based; conditions: U-937
Histone acetyltransferase KAT2A (Homo sapiens), sequence (Q92830 2-837 limits assumed): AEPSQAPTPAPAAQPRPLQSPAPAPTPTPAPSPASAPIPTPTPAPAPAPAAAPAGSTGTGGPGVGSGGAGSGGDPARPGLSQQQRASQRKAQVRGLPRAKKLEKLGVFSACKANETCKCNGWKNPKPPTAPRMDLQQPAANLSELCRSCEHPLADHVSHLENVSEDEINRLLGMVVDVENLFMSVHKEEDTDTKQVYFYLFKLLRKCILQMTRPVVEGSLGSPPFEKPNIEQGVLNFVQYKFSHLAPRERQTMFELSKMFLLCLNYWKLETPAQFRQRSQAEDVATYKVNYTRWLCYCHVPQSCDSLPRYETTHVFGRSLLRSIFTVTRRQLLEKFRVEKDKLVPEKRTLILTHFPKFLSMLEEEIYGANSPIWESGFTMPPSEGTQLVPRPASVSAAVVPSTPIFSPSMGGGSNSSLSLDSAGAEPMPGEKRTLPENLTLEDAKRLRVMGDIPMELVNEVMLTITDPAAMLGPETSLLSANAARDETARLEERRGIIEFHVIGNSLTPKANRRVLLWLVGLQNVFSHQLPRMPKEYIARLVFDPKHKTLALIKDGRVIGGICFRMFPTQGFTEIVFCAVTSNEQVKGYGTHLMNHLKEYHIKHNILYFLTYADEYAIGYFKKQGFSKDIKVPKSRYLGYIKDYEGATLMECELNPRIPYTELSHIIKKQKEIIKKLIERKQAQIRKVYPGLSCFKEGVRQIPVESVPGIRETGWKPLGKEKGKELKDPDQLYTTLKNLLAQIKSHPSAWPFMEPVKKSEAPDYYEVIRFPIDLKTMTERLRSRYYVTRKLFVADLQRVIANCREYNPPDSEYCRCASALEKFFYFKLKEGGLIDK

U-937 [13] = assay: Increase in histone H3 acetylation in human U937 cells at 5 uM after 20 hrs by Western blot analysis; type: functional, cell-based

Compound	Activity (U-937 [1])	Activity (U-937 [2])	Activity (HEK-TE [3])	Activity (U-937 [9])	Activity (U-937 [10])	further results
C=C1C(=O)O[C@H](CCC)[C@H]1C(=O)O	55%	–	–	–	–	–
COc1cc(/C=C/C(=O)CC(=O)/C=C/c2ccc(O)c(OC)c2)ccc1O	–	46%	–	–	–	–
C=CC/C=C\C/C=C\CCCCCCCc1cccc(O)c1C(=O)O	62%	–	–	–	–	–
CCCCCCCCCCCCCCC=C(C(=O)OCC)C(=O)OCC	81%	74%	Active	Active	23.9%	Activity [4]: Active; Activity (U-937 [5]): Active; Activity (U-937 [6]): 94.4%; Activity (U-937 [7]): inactive; Activity (U-937 [8]): Active; Activity (HEK-TE [11]): Active; Activity [12]: inactive; Activity (U-937 [13]): Active
CCCCCCCCCCCCCC=C(C(=O)OCC)C(=O)OCC	–	–	–	Active	23.8%	–
O=C(CCCCCCC(=O)Nc1ccccc1)NO	–	–	Active	–	–	–
